This is an account of results in ChEMBL document CHEMBL5257089, “Gamabufotalin Induces Apoptosis and Cytoprotective Autophagy through the mTOR Signaling Pathway in Hepatocellular Carcinoma” (J Nat Prod, 2023).

Series [1] has as its system Hep 3B2. The series is described as follows: Induction of apoptosis in human Hep3B cells assessed as decrease in bcl-2 level at 10 nM incubated for 48 hrs in presence of gamabufotalin by immunoblot analysis. Format: functional, cell-based. Background: In western blotting, separated proteins are transferred to a membrane and probed.
Series [2] relates to Hep 3B2. The series is described as follows: Induction of autophagic flux in human Hep3B cells harbouring mCherry-egfp-LC3 assessed as reduction in number of yellow puncta ratio at 10 nM incubated for 15 mins in presence of gamabufotalin by laser scanning confocal microscopic analysis. In kind it is functional, cell-based.
Series [3] deals with Hep 3B2. Briefly: Induction of apoptosis in human Hep3B cells assessed as increase in PARP level at 10 nM incubated for 48 hrs in presence of gamabufotalin by immunoblot analysis. In kind it is functional, cell-based.
The subject of series [4] is Hep 3B2. Briefly: Induction of autophagy in human Hep3B cells assessed as rescue of mTOR phosphorylation level at upto 10 nM incubated for 48 hrs in presence of gamabufotalin by immunoblot method. Format: functional, cell-based.
The test system of series [5] is Huh-7. The series is described as follows: Induction of apoptosis in human Huh-7 cells assessed as necrotic cells at 25 nM incubated for 48 hrs by Annexin V-FITC/PI staining based flow cytometry method (reference value: 0.7%). In kind it is functional.
The test system of series [6] is Huh-7. Briefly: Induction of autophagy in human Huh-7 cells assessed as restoration of ULK1 phosphorylation expression at 25 uM incubated for 48 hrs in presence of 4,6-dimorpholino-N-(4-nitrophenyl)-1,3,5-triazin-2-amine by immunoblot analysis. In kind it is functional, cell-based.
The subject of series [7] is Hep 3B2. Briefly: Antitumor activity against human Hep3B cells xenografted in nude mouse model assessed as downregulation of ULK1 phosphorylation expression expression at 5 mg/kg,ip administered every second day for 3 weeks by Western blot analysis. Format: functional, organism-based.
For series [8], the system named is Hep 3B2. The series is described as follows: Induction of apoptosis in human Hep3B cells assessed as late apoptotic cells at 25 nM incubated for 48 hrs in presence of chloroquine by Annexin V-FITC/PI staining based flow cytometry method (reference value: 3.5%). Format: functional. On the technique in general: Flow cytometry measures light scatter and fluorescence of single cells or particles in a stream.

Series [9] concerns Hep 3B2. Briefly: Induction of autophagic flux in human Hep3B cells harbouring mCherry-egfp-LC3 assessed as increase in yellow puncta at 25 nM incubated for 15 mins by laser scanning confocal microscopic analysis. In kind it is functional, cell-based.
The subject of series [10] is Huh-7. The series is described as follows: Induction of apoptosis in human Huh-7 cells assessed as reduction in Bcl-2 level at 25 nM incubated for 48 hrs in presence of chloroquine by immunoblot analysis. In kind it is functional, cell-based.
The test system of series [11] is Hep 3B2. The series is described as follows: Induction of autophagic flux in human Hep3B cells harbouring mCherry-egfp-LC3 assessed as increase in red puncta at 25 nM incubated for 15 mins by laser scanning confocal microscopic analysis. In kind it is functional, cell-based.
The subject of series [12] is Hep 3B2. Briefly: Induction of apoptosis in human Hep3B cells assessed as viable cells at 25 nM incubated for 48 hrs by Annexin V-FITC/PI staining based flow cytometry method (reference value: 93.3%). Format: functional. The conditions noted are these: read-out: Activity.
The test system of series [13] is Hep 3B2. Briefly: Induction of autophagy in human Hep3B cells assessed as upregulation of p62 at 25 uM incubated for 48 hrs in presence of 4,6-dimorpholino-N-(4-nitrophenyl)-1,3,5-triazin-2-amine by immunoblot analysis. In kind it is functional, cell-based.
Series [14] deals with Huh-7. The series is described as follows: Induction of apoptosis in human Huh-7 cells assessed as late apoptotic cells at 25 nM incubated for 48 hrs by Annexin V-FITC/PI staining based flow cytometry method (reference value: 4.7%). In kind it is functional.
Series [15] deals with Huh-7. Briefly: Induction of apoptosis in human Huh-7 cells assessed as upregulation of PARP level […] incubated for 48 hrs in presence of 4,6-dimorpholino-N-(4-nitrophenyl)-1,3,5-triazin-2-amine by immunoblot analysis. In kind it is functional, cell-based.
Series [16] relates to Huh-7. The series is described as follows: Induction of apoptosis in human Huh-7 cells assessed as viable cells at 25 nM measured after 48 hrs in presence of z-VAD-FMK by annexin V-FITC/Propidium iodide staining based flow cytometric analysis (reference value: 91.7%). Format: functional. As to conditions: read-out: Activity.
The test system of series [17] is Huh-7. The series is described as follows: Induction of apoptosis in human Huh-7 cells assessed as condensed nuclei at upto 25 uM incubated for 48 hrs by Hoechst33258 staining based fluorescence microscopy. Format: functional, cell-based.
The test system of series [18] is Huh-7. The series is described as follows: Induction of apoptosis in human Huh-7 cells assessed as early apoptotic cells at 25 nM incubated for 48 hrs by Annexin V-FITC/PI staining based flow cytometry method (reference value: 1.7%). Format: functional.
Series [19] has as its system Huh-7. Briefly: Induction of apoptosis in human Huh-7 cells assessed as increase in cleaved PARP level at 25 nM incubated for 48 hrs in presence of chloroquine by immunoblot analysis. Format: functional, cell-based.
Series [20] deals with Huh-7. Briefly: Induction of apoptosis in human Huh-7 cells assessed as late apoptotic cells at 25 nM incubated for 48 hrs in presence of 4,6-dimorpholino-N-(4-nitrophenyl)-1,3,5-triazin-2-amine by Annexin V-FITC/PI staining based flow cytometry method (reference value: 3.8%). In kind it is functional.
Series [21] concerns Hep 3B2. Briefly: Induction of apoptosis in human Hep3B cells assessed as increase in cleaved caspase-3 level at 25 nM incubated for 48 hrs in presence of chloroquine by immunoblot analysis. Format: functional, cell-based.
Series [22] can be described thus: Toxicity in mouse assessed as effect on spleen at 5 mg/kg,ip administered every second day for 3 weeks by H and E staining based microscopic method. In kind it is organism-based. As to conditions: in vivo, 504 h.
Series [23] concerns Huh-7. Briefly: Induction of apoptosis in human Huh-7 cells assessed as increase in cleaved caspase-3 level at 25 nM incubated for 48 hrs in presence of chloroquine by immunoblot analysis. In kind it is functional, cell-based.
The subject of series [24] is Huh-7. Briefly: Induction of autophagic flux in human Huh-7 cells assessed as increase in LC3-I expression at upto 25 nM incubated for 48 hrs by Western blot analysis. Format: functional, cell-based.
Series [25] deals with Hep 3B2. The series is described as follows: Induction of apoptosis in human Hep3B cells assessed as late apoptotic cells at 25 nM measured after 48 hrs by annexin V-FITC/Propidium iodide staining based flow cytometric analysis (reference value: 2.4%). Format: functional.
In series [26] the test system is Huh-7. Briefly: Induction of apoptosis in human Huh-7 cells assessed as late apoptotic cells at 20 nM incubated for 48 hrs by Annexin V-FITC/PI staining based flow cytometry method (reference value: 2.2%). Format: functional.
For series [27], the system named is Hep 3B2. The series is described as follows: Induction of apoptosis in human Hep3B cells assessed as condensed nuclei at […] incubated for 48 hrs by Hoechst33258 staining based fluorescence microscopy. In kind it is functional, cell-based.
The subject of series [28] is Hep 3B2. Briefly: Induction of apoptosis in human Hep3B cells assessed as early apoptotic cells at 20 nM incubated for 48 hrs by Annexin V-FITC/PI staining based flow cytometry method (reference value: 3.9%). In kind it is functional.
Series [29] deals with Huh-7. Briefly: Induction of apoptosis in human Huh-7 cells assessed as late apoptotic cells at 25 nM measured after 48 hrs by annexin V-FITC/Propidium iodide staining based flow cytometric analysis (reference value: 6.1%). Format: functional.
For series [30], the system named is Hep 3B2. The series is described as follows: Induction of apoptosis in human Hep3B cells assessed as viable cells at 25 nM measured after 48 hrs in presence of Z-VAD-FMK by annexin V-FITC/Propidium iodide staining based flow cytometric analysis (reference value: 95.6%). In kind it is functional. As to conditions: read-out: Activity.
For series [31], the system named is Huh-7. The series is described as follows: Induction of autophagic flux in human Huh-7 cells assessed as rescue of LC3-II accumulation at 25 uM incubated for 48 hrs in presence of chloroquine by Western blot analysis. In kind it is functional, cell-based.
Series [32] has as its system Hep 3B2. Briefly: Induction of autophagic flux in human Hep3B cells assessed as decrease in p62 expression at upto 25 nM incubated for 48 hrs by Western blot analysis. Format: functional, cell-based.
Series [33] deals with Huh-7. Briefly: Induction of apoptosis in human Huh-7 cells assessed as necrotic cells at 20 nM incubated for 48 hrs by Annexin V-FITC/PI staining based flow cytometry method (reference value: 0.7%). Format: functional.

The source made the active and inactive calls. The rule behind the calls is not given here.

In the case of `CCN(CC)CCCC(C)Nc1ccnc2cc(Cl)ccc12` (stereo not drawn) [CHLOROQUINE], the result with Hep 3B2 [1], in the series on Hep 3B2 [2], in the series on Hep 3B2 [3] and with Hep 3B2 [4] was Active.
For the molecule `C[C@]12CC[C@H](O)C[C@H]1CC[C@@H]1[C@@H]2[C@H](O)C[C@]2(C)[C@@H](c3ccc(=O)oc3)CC[C@]12O` [GAMABUFOTALIN], the Activity is listed as 6.3% in the series on Huh-7 [5]; 17.4% with Hep 3B2 [8]; 10.2% with Huh-7 [14]; 5.6% in the series with Huh-7 [18]; 6.6% with Huh-7 [20]; “Non-Toxic” in series [22]. Moreover, the Activity in the series on Hep 3B2 [25] turned out to be 13.2%; in the series with Huh-7 [26], 28.8%; in the series on Hep 3B2 [28], 7.8%; in the series on Huh-7 [29], 20.3%; with Huh-7 [33], 4.9%. In addition, the result in the series with Huh-7 [6], in the series on Hep 3B2 [7], with Hep 3B2 [9], in the series on Huh-7 [10], with Hep 3B2 [11] and with Hep 3B2 [13] was Active. Further, the result in the series with Huh-7 [15], with Huh-7 [17], with Huh-7 [19], in the series with Hep 3B2 [21], with Huh-7 [23] and in the series with Huh-7 [24] was Active. Besides, the result in the series with Hep 3B2 [27], in the series on Huh-7 [31] and with Hep 3B2 [32] was Active. Also, the viability at 0.025 µM in the series with Hep 3B2 [12] was 84.9%; with Huh-7 [16], 89%; with Hep 3B2 [30] it was 91.9%.
